The source of these data is ChEMBL document CHEMBL5584229, “Application and challenges of nitrogen heterocycles in PROTAC linker” (Eur J Med Chem, 2024).

Series [1] concerns von Hippel-Lindau disease tumor suppressor/Epidermal growth factor receptor (Homo sapiens), P00533+P40337 [UNDEFINED MUTATION]. The experiment in a line: PROTAC activity at VHL/EGFR del19 mutant in human HCC827 cells assessed as maximal degradation incubated for 24 hrs by immunoblot analysis relative to control. Type of series: cell-based. (A western blot detects proteins with antibodies after separation by electrophoresis.)

Series [2] addresses T1, von Hippel-Lindau disease tumor suppressor/Mitogen-activated protein kinase 14 (Homo sapiens, UniProt Q16539+P40337). Nature of the series: PROTAC activity at VHL/N-terminal His-tagged human p38alpha in T47D cells assessed as p38alpha degradation. The series is classed as cell-based.
The target of series [3] is T1, von Hippel-Lindau disease tumor suppressor/Mitogen-activated protein kinase 14. The experiment in a line: PROTAC activity at VHL/N-terminal His-tagged human p38alpha in MDA-MB-231 cells assessed as p38alpha degradation. The series is classed as cell-based.
Series [4] concerns the target Protein cereblon/Cyclin-dependent kinase 9 (Homo sapiens) (UniProt P50750+Q96SW2). Nature of the series: Protac activity at CRBN/CDK9 in human HeLa cells assessed as […] at 1 uM measured after 6 hrs by Western blot analysis. The series is classed as cell-based.
Series [5] addresses T2, Protein cereblon/Receptor-type tyrosine-protein kinase FLT3 (Homo sapiens, UniProt P36888+Q96SW2). The experiment in a line: PROTAC activity at CRBN/FLT3-ITD mutant in human MV4-11 cells assessed as protein degradation by Western blot analysis. The series is classed as cell-based.
In series [6] the target is T2, Protein cereblon/Receptor-type tyrosine-protein kinase FLT3. The experiment in a line: PROTAC activity at CRBN/FLT3 in human MV4-11 cells harboring FLT3-ITD mutation assessed as induction of FLT3 degradation incubated for 24 hrs by immunoblotting analysis. The series is classed as cell-based.
For series [7], the target named is T3, Protein cereblon/ALK tyrosine kinase receptor (Homo sapiens, UniProt Q9UM73+Q96SW2). The experiment in a line: PROTAC activity at CRBN/ALK in human NCI-H3122 cells assessed as induction of ALK degradation by measuring maximal degradation at […] incubated for 24 hrs by Western blot analysis. The series is classed as cell-based.
Series [8] has as its target T3, Protein cereblon/ALK tyrosine kinase receptor. Nature of the series: PROTAC activity at CRBN/ALK in human NCI-H3122 cells assessed as induction of ALK degradation incubated for 24 hrs by Western blot analysis. Type of series: cell-based.
Target sequence in this assay (Q9UM73 whole entry): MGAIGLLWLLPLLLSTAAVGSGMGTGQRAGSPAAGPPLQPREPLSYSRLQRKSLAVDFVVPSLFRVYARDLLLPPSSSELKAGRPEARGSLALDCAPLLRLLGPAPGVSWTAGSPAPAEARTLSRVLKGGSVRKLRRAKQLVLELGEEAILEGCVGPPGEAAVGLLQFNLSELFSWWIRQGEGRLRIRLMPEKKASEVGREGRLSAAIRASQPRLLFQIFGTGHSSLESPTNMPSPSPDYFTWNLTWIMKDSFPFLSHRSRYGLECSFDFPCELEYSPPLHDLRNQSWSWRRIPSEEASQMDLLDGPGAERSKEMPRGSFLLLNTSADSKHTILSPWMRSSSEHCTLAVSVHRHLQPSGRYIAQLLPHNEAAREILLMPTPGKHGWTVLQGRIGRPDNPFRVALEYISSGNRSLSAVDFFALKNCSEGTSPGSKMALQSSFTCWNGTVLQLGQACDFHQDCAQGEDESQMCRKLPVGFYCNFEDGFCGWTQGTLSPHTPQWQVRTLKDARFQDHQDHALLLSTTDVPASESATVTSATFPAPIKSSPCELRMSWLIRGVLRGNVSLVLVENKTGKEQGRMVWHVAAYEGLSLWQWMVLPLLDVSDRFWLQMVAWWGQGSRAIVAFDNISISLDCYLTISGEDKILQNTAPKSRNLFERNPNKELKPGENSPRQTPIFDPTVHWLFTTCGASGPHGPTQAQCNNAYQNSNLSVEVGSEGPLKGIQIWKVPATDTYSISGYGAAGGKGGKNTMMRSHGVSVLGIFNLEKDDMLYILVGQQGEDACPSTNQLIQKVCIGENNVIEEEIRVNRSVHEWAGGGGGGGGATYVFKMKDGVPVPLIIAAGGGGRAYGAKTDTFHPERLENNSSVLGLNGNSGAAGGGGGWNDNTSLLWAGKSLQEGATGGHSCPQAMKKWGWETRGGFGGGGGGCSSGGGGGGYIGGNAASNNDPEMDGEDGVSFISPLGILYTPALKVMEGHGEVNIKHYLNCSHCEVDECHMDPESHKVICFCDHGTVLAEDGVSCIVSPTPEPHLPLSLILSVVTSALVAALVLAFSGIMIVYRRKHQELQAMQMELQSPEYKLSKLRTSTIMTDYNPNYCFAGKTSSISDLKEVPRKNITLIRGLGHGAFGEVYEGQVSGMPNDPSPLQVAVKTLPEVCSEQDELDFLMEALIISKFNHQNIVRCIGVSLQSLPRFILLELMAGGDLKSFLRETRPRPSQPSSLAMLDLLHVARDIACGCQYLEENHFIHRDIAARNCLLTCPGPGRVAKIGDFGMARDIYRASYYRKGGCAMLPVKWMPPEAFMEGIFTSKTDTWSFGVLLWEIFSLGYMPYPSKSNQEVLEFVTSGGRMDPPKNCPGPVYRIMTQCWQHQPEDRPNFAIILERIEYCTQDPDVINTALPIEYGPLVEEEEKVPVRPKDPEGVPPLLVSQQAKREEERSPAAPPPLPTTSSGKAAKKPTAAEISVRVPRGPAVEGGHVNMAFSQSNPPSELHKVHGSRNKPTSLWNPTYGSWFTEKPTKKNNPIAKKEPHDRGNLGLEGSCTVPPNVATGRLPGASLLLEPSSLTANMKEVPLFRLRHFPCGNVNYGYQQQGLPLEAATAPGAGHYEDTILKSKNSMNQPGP
Target sequence in this assay (Q96SW2 whole entry): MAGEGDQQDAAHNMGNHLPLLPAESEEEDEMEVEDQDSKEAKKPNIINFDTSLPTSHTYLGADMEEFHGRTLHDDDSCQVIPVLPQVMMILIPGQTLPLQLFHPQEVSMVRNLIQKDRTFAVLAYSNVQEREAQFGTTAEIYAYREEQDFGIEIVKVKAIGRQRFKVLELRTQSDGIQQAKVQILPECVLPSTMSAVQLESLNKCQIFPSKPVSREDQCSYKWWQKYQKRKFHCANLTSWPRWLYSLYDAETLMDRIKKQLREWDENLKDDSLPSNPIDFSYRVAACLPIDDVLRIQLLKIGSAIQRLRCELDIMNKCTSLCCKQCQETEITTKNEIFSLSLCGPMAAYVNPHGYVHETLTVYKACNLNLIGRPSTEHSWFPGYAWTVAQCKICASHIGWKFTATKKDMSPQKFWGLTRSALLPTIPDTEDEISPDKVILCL
The target of series [9] is Von Hippel-Lindau disease tumor suppressor/Elongin B/Elongin C (Homo sapiens, UniProt P40337). The experiment in a line: Inhibition of 6xHis-tagged VHL (1 to 213 residues)/Elongin B/Elogin C (unknown origin) expressed in Escherichia coli BL21 cells by fluorescence polarization assay. A general note: In fluorescence polarisation assays a small probe gives low polarisation when free and higher when bound to something large.

Series [10] deals with Protein cereblon/Androgen receptor (Homo sapiens, UniProt P10275+Q96SW2). Nature of the series: PROTAC activity at AR/CRBN in human A549 cells assessed as induction of androgen receptor degradation measured after 1 hr by Western blot analysis. Type of series: cell-based.
For series [11], the system named is A549. The experiment in a line: Cytotoxicity against human A549 cells assessed as reduction in cell growth incubated for 5 days by MTT assay. The series is classed as functional, cell-based. To be noted: A549, 120 h.
For series [12], the target named is E3 ubiquitin-protein ligase Mdm2/Histone deacetylase 1 (Homo sapiens) (UniProt Q00987+Q13547). The experiment in a line: PROTAC activity at MDM2/HDAC1 in human HCT-116 cells assessed as induction of HDAC1 degradation at 10 uM by Western blot analysis relative to control. The series is classed as cell-based.
Series [13] can be described thus: AUC (0 to t) in ICR mouse at 2 mg/kg, iv. The series is classed as ADME, organism-based. To be noted: in vivo.
Series [14] deals with HeLa. Nature of the series: Antiproliferative activity against human HeLa cells assessed as reduction in cell viability incubated for 24 hrs by MTT assay. Type of series: functional, cell-based. Background: Tetrazolium dyes change colour on reduction, which living cells bring about.

Each structure is given as a SMILES string.

T1 sequence (Q16539 whole entry): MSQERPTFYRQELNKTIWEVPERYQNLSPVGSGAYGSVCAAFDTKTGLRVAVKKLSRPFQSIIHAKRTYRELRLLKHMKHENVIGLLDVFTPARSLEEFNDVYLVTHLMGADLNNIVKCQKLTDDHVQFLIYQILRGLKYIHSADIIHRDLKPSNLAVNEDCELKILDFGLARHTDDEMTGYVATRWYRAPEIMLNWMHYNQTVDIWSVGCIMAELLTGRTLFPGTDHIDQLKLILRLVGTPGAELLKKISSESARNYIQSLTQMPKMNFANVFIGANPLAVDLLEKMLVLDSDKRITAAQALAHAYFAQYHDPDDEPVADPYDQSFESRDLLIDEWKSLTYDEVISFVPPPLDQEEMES
T1 sequence (P40337 whole entry): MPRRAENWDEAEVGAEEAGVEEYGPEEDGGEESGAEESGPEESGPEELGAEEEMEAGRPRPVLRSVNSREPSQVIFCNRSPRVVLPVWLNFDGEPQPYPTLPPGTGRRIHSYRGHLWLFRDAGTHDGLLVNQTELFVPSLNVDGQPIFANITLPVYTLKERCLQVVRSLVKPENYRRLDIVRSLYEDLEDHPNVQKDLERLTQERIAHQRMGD
T2 sequence (P36888 whole entry, looked up, change not shown): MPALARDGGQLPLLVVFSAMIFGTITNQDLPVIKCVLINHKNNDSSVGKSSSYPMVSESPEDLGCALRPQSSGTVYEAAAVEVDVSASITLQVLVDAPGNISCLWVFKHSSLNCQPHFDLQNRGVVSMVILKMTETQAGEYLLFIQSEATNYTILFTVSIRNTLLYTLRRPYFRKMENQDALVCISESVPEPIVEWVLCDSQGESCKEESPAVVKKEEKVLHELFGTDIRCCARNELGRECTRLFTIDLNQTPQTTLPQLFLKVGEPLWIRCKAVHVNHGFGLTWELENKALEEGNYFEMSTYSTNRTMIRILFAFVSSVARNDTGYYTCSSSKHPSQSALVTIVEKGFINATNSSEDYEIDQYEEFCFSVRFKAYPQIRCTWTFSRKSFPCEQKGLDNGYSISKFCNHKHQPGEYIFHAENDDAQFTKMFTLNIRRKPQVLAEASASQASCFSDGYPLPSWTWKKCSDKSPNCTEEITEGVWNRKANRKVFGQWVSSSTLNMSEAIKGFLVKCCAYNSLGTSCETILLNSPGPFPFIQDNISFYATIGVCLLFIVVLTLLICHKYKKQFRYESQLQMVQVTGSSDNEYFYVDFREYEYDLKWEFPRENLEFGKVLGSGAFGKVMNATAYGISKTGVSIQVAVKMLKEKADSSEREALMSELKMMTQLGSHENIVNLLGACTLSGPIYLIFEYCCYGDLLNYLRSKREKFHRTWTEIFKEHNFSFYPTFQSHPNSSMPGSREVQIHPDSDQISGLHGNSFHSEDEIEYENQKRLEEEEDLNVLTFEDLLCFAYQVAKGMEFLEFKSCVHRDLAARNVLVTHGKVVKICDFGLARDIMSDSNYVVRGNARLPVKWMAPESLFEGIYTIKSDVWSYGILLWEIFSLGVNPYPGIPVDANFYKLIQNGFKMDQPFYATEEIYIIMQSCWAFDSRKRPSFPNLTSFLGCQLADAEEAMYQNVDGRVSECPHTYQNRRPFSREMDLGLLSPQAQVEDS
T2 sequence (Q96SW2 whole entry, looked up, change not shown): as the sequence (Q96SW2 whole entry) above
Sequence of E3 ubiquitin-protein ligase Mdm2/Histone deacetylase 1 (Homo sapiens) (Q00987 whole entry, looked up): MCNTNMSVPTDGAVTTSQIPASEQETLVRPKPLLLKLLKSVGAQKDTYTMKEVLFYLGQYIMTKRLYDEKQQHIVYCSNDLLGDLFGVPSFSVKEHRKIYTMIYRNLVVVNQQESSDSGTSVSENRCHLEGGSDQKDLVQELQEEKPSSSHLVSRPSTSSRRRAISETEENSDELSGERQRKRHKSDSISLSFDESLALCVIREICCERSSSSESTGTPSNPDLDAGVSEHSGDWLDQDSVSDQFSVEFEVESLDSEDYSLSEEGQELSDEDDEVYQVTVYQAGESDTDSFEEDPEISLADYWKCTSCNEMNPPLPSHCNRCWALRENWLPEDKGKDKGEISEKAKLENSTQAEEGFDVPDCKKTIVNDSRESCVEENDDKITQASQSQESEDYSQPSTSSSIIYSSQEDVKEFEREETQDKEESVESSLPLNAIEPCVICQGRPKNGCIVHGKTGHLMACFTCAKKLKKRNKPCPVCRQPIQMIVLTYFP
Sequence of E3 ubiquitin-protein ligase Mdm2/Histone deacetylase 1 (Homo sapiens) (Q13547 whole entry, looked up): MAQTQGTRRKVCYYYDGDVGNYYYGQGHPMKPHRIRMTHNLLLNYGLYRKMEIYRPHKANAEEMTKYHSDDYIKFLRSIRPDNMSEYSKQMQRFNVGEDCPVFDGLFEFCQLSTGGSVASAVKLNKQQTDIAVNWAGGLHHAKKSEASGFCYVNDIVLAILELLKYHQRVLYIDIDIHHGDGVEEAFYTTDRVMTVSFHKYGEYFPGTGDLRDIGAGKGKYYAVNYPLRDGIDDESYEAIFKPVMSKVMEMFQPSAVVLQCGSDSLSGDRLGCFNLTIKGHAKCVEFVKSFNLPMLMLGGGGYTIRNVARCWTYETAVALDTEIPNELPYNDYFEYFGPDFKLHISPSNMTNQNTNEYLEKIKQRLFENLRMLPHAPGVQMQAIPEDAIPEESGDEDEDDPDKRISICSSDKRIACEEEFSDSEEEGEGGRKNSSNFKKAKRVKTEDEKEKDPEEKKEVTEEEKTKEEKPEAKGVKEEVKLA
Sequence of Von Hippel-Lindau disease tumor suppressor/Elongin B/Elongin C (P40337 whole entry, looked up, the tested form may be a part): as the sequence (P40337 whole entry) above

On to `Cc1ncsc1-c1ccc(CNC(=O)[C@@H]2C[C@@H](O)CN2C(=O)[C@@H](NC(=O)CCCCCCCCCCn2cc(COc3cc4ncnc(Nc5ccc(F)c(Cl)c5)c4cc3NC(=O)/C=C/CN3CCCCC3)nn2)C(C)(C)C)cc1`, for which, in series [1], the Emax was determined as 91%. What is called DC50 is the concentration at which degradation of the target reaches its halfway point. `C=C1c2cccc(NCCCCCCNC(=O)CCCn3cc(CCCCNC(=O)c4ccc(C)c(-n5c(C)cc(OCc6ccc(F)cc6F)c(Br)c5=O)c4)nn3)c2C(=O)N1C1CCC(=O)NC1=O` (configuration not stated): the DC50 amounted to 2.9 nM in series [2] and 18.4 nM in series [3]. For `Cc1ccc(C(=O)NCCCc2cn(CCCC(=O)NCCCCCC(=O)N[C@H](C(=O)N3C[C@H](O)C[C@H]3C(=O)N[C@@H](C)c3ccc(-c4scnc4C)cc3)C(C)(C)C)nn2)cc1-n1c(C)cc(OCc2ccc(F)cc2F)c(Br)c1=O`, the DC50 in series [3] was found to be 11.6 nM. Turning to `O=C1CCC(N2C(=O)c3cccc(NC(=O)CCCCCCCn4cc(COc5c(O)cc(O)c6c(=O)cc(-c7ccccc7)oc56)nn4)c3C2=O)C(=O)N1` (configuration not stated), the Emax in [4] is 61.2%.

Consider `CC(C)(C)c1cc(NC(=O)Nc2ccc(-c3cn(CCCCc4cn(CCCCC(=O)Nc5cccc6c5CN(C5CCC(=O)NC5=O)C6=O)nn4)c4ncnc(N)c34)cc2)no1` (configuration not stated), for which the DC50 was 76.7 nM in series [5] and 7850 nM in [6]. Take `N#Cc1cccc(-c2ccc(=O)n(Cc3cccc(-c4ncc(OCC5CCN(CC(=O)NCCOCNc6ccc7c(c6)C(=O)N(C6CCC(=O)NC6=O)C7=O)CC5)cn4)c3)n2)c1` (configuration not stated): the Emax in [7] was more than 99%. Moreover, the DC50 in [8] turned out to be 0.77 nM.

Usually IC50 stands for the midpoint of a concentration-inhibition curve. With `CCCS(=O)(=O)Nc1ccc(F)c(C(=O)c2c[nH]c3ncc(-c4ccc(N5CCN(CC(=O)N[C@H](C(=O)N6C[C@H](O)C[C@H]6C(=O)NCc6ccc(-c7scnc7C)cc6)C(C)(C)C)CC5)cc4)cc23)c1F`, in [9], the IC50 came out at 6.8 nM. For `N#Cc1cccc(-c2ccc(=O)n(Cc3cccc(-c4ncc(OCC5CCN(CC(=O)N6CCN(c7ccc8c(c7)C(=O)N(C7CCC(=O)NC7=O)C8=O)CC6)CC5)cn4)c3)n2)c1` (configuration not stated), the DC50 in [8] was found to be 0.35 nM.

Regarding `CC1(C)C(=O)N(c2ccc(C#N)c(C(F)(F)F)c2)C(=S)N1c1ccc(-c2ccc(O[C@@H]3CCN(C(=O)C4CCN(c5ccc6c(c5)C(=O)N(C5CCC(=O)NC5=O)C6=O)CC4)C3)cc2)cc1` (some centres not stated), in [10], the DC50 was found to be 75 nM. With `COC(C)(C)CCC[C@@](C)(O)[C@H]1CC[C@]2(C)[C@@H]1[C@H](O)C[C@@H]1[C@@]3(C)CC[C@H](OCC(=O)N4CCC(CN5CCN(c6ccc7c(c6)CN(C6CCC(=O)NC6=O)C7=O)CC5)CC4)C(C)(C)[C@@H]3CC[C@]12C` (some centres not stated), the IC50 in series [11] is 2160 nM. Besides, the Emax in series [12] came out at 65.4%. In the case of `N#Cc1cccc(-c2ccc(=O)n(Cc3cccc(-c4ncc(OCC5CCN(CC(=O)N6CCN(CCNc7ccc8c(c7)C(=O)N(C7CCC(=O)NC7=O)C8=O)CC6)CC5)cn4)c3)n2)c1` (configuration not stated), in [8], the DC50 was found to be 0.6 nM. What is called AUC(0-t) is exposure summed from dosing to a finite time, without extrapolation to infinity. Low readings indicate less exposure, high ones more exposure. In the case of `NC(=O)c1cccc2cn(-c3ccc(C4CCCN(CCC5CCN(CCC6CCN(c7ccc8c(c7)C(=O)N(C7CCC(=O)NC7=O)C8=O)CC6)CC5)C4)cc3)nc12` (configuration not stated), in series [13], the AUC(0-t) amounted to 24500 ng·h/mL. As for `CC1(NCc2cn(CCOCCOCCOCCOCCNc3cccc4c3C(=O)N(C3CCC(=O)NC3=O)C4=O)nn2)CCN(c2cnc(-c3cccc(Cl)c3Cl)c(N)n2)CC1` (configuration not stated), the IC50 in [14] was 4300 nM.
